Results published in US20230310388A1, “Methods and Compositions for Treating Fungal Infections” (Neoculi Pty Ltd, priority 2020, published 2023).

Columns and labels:
[1] = system: Candida albicans; test: CLSI broth microdilution MIC (Example 4); format: cell-based
Experimental: (§1) Antifungal minimum inhibitory concentration (MIC) testing was undertaken as recommended by the CLSI. Briefly, antifungal susceptibility tests were performed for amphotericin B, robenidine (NCL812) and robenidine (NCL) analogs (NCL004, NCL020, NCL023, NCL024, NCL062, NCL094, NCL097, NCL110, NCL113, NCL114, NCL115, NCL135, NCL139, NCL180, NCL181, NCL195, NCL219, NCL220, NCL228, NCL247, NCL250, NCL259, NCL260, NCL263, NCL265, NCL269, NCL274) by standard broth microdilution method (CLSI) in RPMI 1640. Various concentrations (ranging from high to low) of the selected compounds were prepared in RPMI 1640 medium by double dilution in 96-well microtitre plates. Each well contained an inoculum of approximately 2×10^3 cells/mL. The wells without addition of drugs served as negative (no inoculum) and positive (inoculum only) growth controls. Microtitre plates were incubated at 35° C. for 24-48 hours. […] Antifungal MICs were determined for each isolate in duplicate; if the values obtained were different, the MIC test was repeated a third time.

[2] = system: Cryptococcus neoformans; test: CLSI broth microdilution MIC (Example 4); format: cell-based
Experimental: as §1

[3] = system: Candida albicans; test: CLSI broth microdilution MIC (Example 5); format: cell-based
Experimental: as §1, with “robenidine” for “robenidine (NCL)”, “(NCL23, NCL24, NCL97,” for “(NCL004, NCL020, NCL023, NCL024, NCL062, NCL094, NCL097, NCL110,”, “NCL113,” for “NCL113, NCL114,”, “NCL115,” for “NCL115, NCL135, NCL139, NCL180, NCL181,”, “NCL220,” for “NCL220, NCL228, NCL247, NCL250,”, “NCL265)” for “NCL260, NCL263, NCL265, NCL269, NCL274)”

[4] = system: Cryptococcus neoformans; test: CLSI broth microdilution MIC (Example 5); format: cell-based
Experimental: as §1, with “robenidine” for “robenidine (NCL)”, “(NCL23, NCL24, NCL97,” for “(NCL004, NCL020, NCL023, NCL024, NCL062, NCL094, NCL097, NCL110,”, “NCL113,” for “NCL113, NCL114,”, “NCL115,” for “NCL115, NCL135, NCL139, NCL180, NCL181,”, “NCL220,” for “NCL220, NCL228, NCL247, NCL250,”, “NCL265)” for “NCL260, NCL263, NCL265, NCL269, NCL274)”

[5] = system: Candida albicans; test: CLSI broth microdilution MIC (Example 6); format: cell-based
Experimental: (§2) Antifungal minimum inhibitory concentration (MIC) testing was undertaken as recommended by the CLSI (1). Briefly, antifungal susceptibility tests were performed for amphotericin B, robenidine (NCL812) and 10 robenidine analogs (NCL023, NCL024, NCL097, NCL113, NCL115, NCL195, NCL219, NCL220, NCL259, NCL265) by standard broth microdilution method (CLSI) in RPMI 1640. Various concentrations (ranging from high to low) of the selected compounds were prepared in RPMI 1640 medium by double dilution in 96-well microtitre plates. Each well contained an inoculum of approximately 2×10^3 cells/mL. The wells without addition of drugs served as negative (no inoculum) and positive (inoculum only) growth controls. Microtitre plates were incubated at 35° C. for 24-48 hours. […] Antifungal MICs were determined for each isolate in duplicate; if the values obtained were different, the MIC test was repeated a third time.

[6] = system: Cryptococcus neoformans; test: CLSI broth microdilution MIC (Example 6); format: cell-based
Experimental: as §2

[7] = system: C. gattii; test: CLSI broth microdilution MIC (Example 6); format: cell-based, Cryptococcus gattii
Experimental: as §2

[8] = system: Candida albicans ATCC14053; test: Broth micro-dilution screen at 16 μg/mL and MIC (Example 9); format: cell-based; details: single concentration 16 μg/mL; Growth or No growth of C. albicans ATCC14053
Experimental: The antifungal activity of 201 NCL analogs against Candida albicans ATCC14053 in vitro was investigated. A broth micro-dilution method was used, according to CLSI guidelines as described. NCL analogs were dissolved in DMSO and originally screened at a single concentration of 16 μg/mL.

Cl.N#Cc1ccc(C=NNC(=N)NN=Cc2ccc(C#N)cc2)cc1 [NCL024]
Growth: Screen at 16 μg/mL [8]
highly active: activity against one or more isolates of Cryptococcus neoformans and Candida albicans ([3]; summary in words)
4 µg/mL: MIC ([3]; clinical isolate C. albicans 14-90045999 Azole Resistant) | MIC ([3]; clinical isolate C. albicans 16-90054237)
32 µg/mL: MIC at 24-48 hours ([2]; Cryptococcus neoformans SA2) | MIC ([4]; Cryptococcus neoformans SA2) | MIC ([6]; Cryptococcus neoformans SA2) | MIC ([6]; human clinical isolate C. neoformans serotype A/D hybrid) | MIC ([6]; human clinical isolate C. neoformans var grubii 16-90050434) | MIC ([6]; human clinical isolate C. neoformans var grubii 17-93996464) | MIC ([6]; human clinical isolate C. neoformans var grubii 17-93996964) | MIC ([7]; human clinical isolate C. gatti 17-90232099) | MIC ([7]; human clinical isolate C. gattii 17-90028217) | MIC ([7]; human clinical isolate C. gattii 17-90028242)
16 µg/mL: MIC ([3]; clinical isolate C. albicans 15-45171061) | MIC ([3]; clinical isolate C. albicans 18-144-00196) | MIC ([6]; human clinical isolate C. neoformans var grubii 17-90028233) | MIC ([7]; human clinical isolate C. gattii 16-90050373)
>32 µg/mL: MIC at 24-48 hours ([1]; Candida albicans ATCC 90028) | MIC at 24-48 hours ([1]; Candida albicans SA3) | MIC at 24-48 hours ([2]; Cryptococcus neoformans SA1) | MIC ([3]; C. albicans SA3) | MIC ([3]; Candida albicans ATCC 90028) | MIC ([4]; Cryptococcus neoformans SA1) | MIC ([5]; C. albicans SA3) | MIC ([5]; Candida albicans ATCC 90028) | MIC ([6]; Cryptococcus neoformans SA1)
8 µg/mL: MIC ([3]; clinical isolate C. albicans 12-93301752 Azole Resistant) | MIC ([3]; clinical isolate C. albicans 16-24136919 Azole Resistant) | MIC ([7]; human clinical isolate C. gattii 17-90028211)
>16 µg/mL: MIC ([3]; clinical isolate C. albicans 15-91329871) | MIC ([3]; clinical isolate C. albicans 16-46177400) | MIC ([3]; clinical isolate C. albicans 16-90050810) | MIC ([3]; clinical isolate C. albicans 18-148-08188 Azole Resistant)
